According to PubChem BioAssay (NCI):
Several values for one entry are separate records, joined by “and”; a condition that tells them apart may be missing. Equal values may be shown once.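 Grown in 96-well plates, cells were treated for 48 hours with each compound at five concentrations. Insufficient inhibition: endpoint recorded as highest concentration tested. TGI: concentration producing complete growth inhibition.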

What was measured:
Experiment in all cases: NCI tumour cell line growth inhibition, 48 h
MDA-N = system: MDA-N
DMS 114 small cell lung = system: DMS 114 small cell lung
M19-MEL melanoma = system: M19-MEL melanoma
DLD-1 colon = system: DLD-1 colon
LXFL 529 NSCLC = system: LXFL 529 NSCLC
KM20L2 colon = system: KM20L2 colon
XF 498 CNS = system: XF 498 CNS
RXF-631 renal = system: RXF-631 renal

Compound: Cn1c2ccc3cc2c(=S)c2cc(ccc21)OCCOCCOCCOCCOCCOCCO3
- TGI (MDA-N): > 10 µM

Compound: O=c1c(-c2ccccc2)c2oc(c1-c1ccccc1)CSCc1cccc(c1)CSC2
- TGI (DMS 114 small cell lung): > 100 µM
- TGI (M19-MEL melanoma): > 100 µM
- TGI (DLD-1 colon): > 100 µM
- TGI (LXFL 529 NSCLC): > 100 µM
- TGI (KM20L2 colon): > 100 µM

Compound: CC1=C2C(=C[C@@](C)(CO)[C@@H]2O)C(=O)[C@](C)(O)C12CC2
- TGI (MDA-N): 0.0272 µM and 0.0105 µM

Compound: COC(=O)C(CCCN1C(=O)c2ccccc2C1=O)C(=O)OC
- TGI (DMS 114 small cell lung): > 100 µM
- TGI (M19-MEL melanoma): > 100 µM
- TGI (XF 498 CNS): > 100 µM
- TGI (DLD-1 colon): > 100 µM
- TGI (LXFL 529 NSCLC): > 100 µM
- TGI (KM20L2 colon): > 100 µM

Compound: C#CCn1c(=O)c2ccccc2n(CC#C)c1=O
- TGI (MDA-N): > 10 µM

Compound: CCCCCC[C@@H]1CCC2C(CO)[C@@H](O)CC[C@@H]2C1 (some centres not stated)
- TGI (DMS 114 small cell lung): 37.5 µM
- TGI (M19-MEL melanoma): 35.3 µM
- TGI (XF 498 CNS): 39.8 µM
- TGI (DLD-1 colon): 34.6 µM
- TGI (LXFL 529 NSCLC): 32.6 µM
- TGI (KM20L2 colon): 33.7 µM

Compound: O=C(/C=C/c1ccc([N+](=O)[O-])cc1)c1ccc(NCc2nc3ccccc3[nH]2)cc1
- TGI (DMS 114 small cell lung): 7.44 µM
- TGI (M19-MEL melanoma): 15.3 µM
- TGI (XF 498 CNS): 20.2 µM
- TGI (DLD-1 colon): 15.7 µM
- TGI (LXFL 529 NSCLC): 8.61 µM
- TGI (RXF-631 renal): 19.7 µM
- TGI (KM20L2 colon): 15.3 µM

Compound: C/C(=C\CBr)CCC(Br)C(C)(C)Br (configuration not stated)
- TGI (MDA-N): > 100 µM

Compound: C=CC[C@H](C[C@H](C[C@H](C[C@H](C[C@H](C[C@H](C[C@H](C[C@H](C[C@H](C[C@H](CCCCC)OC)OC)OC)OC)OC)OC)OC)OC)OC)OC
- TGI (DMS 114 small cell lung): > 100 µM
- TGI (M19-MEL melanoma): > 100 µM
- TGI (XF 498 CNS): > 100 µM
- TGI (DLD-1 colon): > 100 µM
- TGI (KM20L2 colon): > 100 µM

Compound: O=C(O)c1nc2nc(Cl)c(Cl)nc2[nH]1
- TGI (MDA-N): > 100 µM

Compound: Oc1[nH]c2ccccc2c1N=Nc1nc(-c2ccc(Br)cc2)cs1
- TGI (MDA-N): > 100 µM

Compound: CC(=O)O/N=C(/C)c1ccccc1O
- TGI (DMS 114 small cell lung): > 100 µM
- TGI (M19-MEL melanoma): > 100 µM
- TGI (XF 498 CNS): > 100 µM
- TGI (DLD-1 colon): > 100 µM
- TGI (LXFL 529 NSCLC): > 100 µM
- TGI (KM20L2 colon): > 100 µM

Compound: CCCCN(CCCC)C(=O)C(=O)C(C(=O)c1ccc(OC)cc1)c1ccc(OC)cc1 (configuration not stated)
- TGI (DMS 114 small cell lung): > 100 µM
- TGI (DLD-1 colon): > 100 µM
- TGI (LXFL 529 NSCLC): > 100 µM
- TGI (RXF-631 renal): > 100 µM
- TGI (KM20L2 colon): > 100 µM

Compound: CCc1c(OC(C)=O)c2c(NC3OCC(OC(C)=O)C(OC(C)=O)C3OC(C)=O)nc(SC)nc2oc1=O (configuration not stated)
- TGI (M19-MEL melanoma): > 100 µM
- TGI (XF 498 CNS): > 100 µM
- TGI (DLD-1 colon): > 100 µM
- TGI (LXFL 529 NSCLC): > 100 µM
- TGI (RXF-631 renal): > 100 µM
- TGI (KM20L2 colon): > 100 µM

Compound: O=[N+]([O-])c1ccc(Cl)cc1N/N=C/c1ccnc2ccccc12
- TGI (MDA-N): > 100 µM

Compound: COc1ccc(OC)c(N2CC(N)C2=O)c1 (configuration not stated)
- TGI (M19-MEL melanoma): > 100 µM
- TGI (XF 498 CNS): > 100 µM
- TGI (RXF-631 renal): > 100 µM
- TGI (KM20L2 colon): > 100 µM

Compound: COc1cccc(C2SC(N)=Nc3c2c(C)nn3C(=O)c2ccccc2O)c1 (configuration not stated)
- TGI (MDA-N): > 10 µM

Compound: COc1cc(C2CC(C)(O)Oc3cc4c(cc32)OCO4)cc(OC)c1OC (configuration not stated)
- TGI (MDA-N): 0.43 µM

Compound: Cc1ccc(/C=C/C(=O)c2cccc3ccccc23)cc1
- TGI (M19-MEL melanoma): 49.9 µM
- TGI (XF 498 CNS): 28.7 µM
- TGI (LXFL 529 NSCLC): 25.3 µM
- TGI (KM20L2 colon): 31 µM

Compound: Cc1cccc(C)c1NC(=O)CCCC(=O)C1/C(=N/NC(=O)CC#N)CCC/C1=N\NC(=O)CC#N (configuration not stated)
- TGI (DMS 114 small cell lung): > 100 µM
- TGI (M19-MEL melanoma): > 100 µM
- TGI (XF 498 CNS): > 100 µM
- TGI (DLD-1 colon): > 100 µM
- TGI (LXFL 529 NSCLC): > 100 µM
- TGI (RXF-631 renal): > 100 µM
- TGI (KM20L2 colon): > 100 µM

Compound: O=C1C=CC(=O)c2nc3c(cc21)CCC3
- TGI (DMS 114 small cell lung): 42.5 µM
- TGI (M19-MEL melanoma): 31.2 µM
- TGI (XF 498 CNS): 32.9 µM
- TGI (DLD-1 colon): 36 µM
- TGI (LXFL 529 NSCLC): 29 µM
- TGI (RXF-631 renal): > 100 µM

Compound: COC(=O)CC(c1ccccc1)C1(c2ccccc2)SCCS1 (configuration not stated)
- TGI (DMS 114 small cell lung): > 290 µM
- TGI (M19-MEL melanoma): > 290 µM
- TGI (XF 498 CNS): > 290 µM
- TGI (DLD-1 colon): > 290 µM
- TGI (LXFL 529 NSCLC): > 290 µM
- TGI (RXF-631 renal): > 290 µM
- TGI (KM20L2 colon): > 290 µM

Compound: O=C(O)c1ccc2c(c1C(=O)O)C(=O)OC2(c1ccc(O)cc1)c1ccc(O)cc1
- TGI (MDA-N): > 100 µM

Compound: CCOC(=S)SCC(=O)O
- TGI (MDA-N): > 100 µM

Compound: O=S(=O)(N/N=C/c1cccc(/C=N/NS(=O)(=O)c2ccccc2)c1)c1ccccc1
- TGI (DMS 114 small cell lung): > 100 µM
- TGI (M19-MEL melanoma): > 100 µM
- TGI (DLD-1 colon): > 100 µM
- TGI (LXFL 529 NSCLC): > 100 µM
- TGI (RXF-631 renal): > 100 µM
- TGI (KM20L2 colon): > 100 µM

Compound: C=C(C)CCOC(c1ccccc1)(c1ccccc1)c1ccccc1
- TGI (M19-MEL melanoma): > 100 µM
- TGI (XF 498 CNS): 90.3 µM
- TGI (DLD-1 colon): > 100 µM
- TGI (LXFL 529 NSCLC): > 100 µM
- TGI (RXF-631 renal): > 100 µM
- TGI (KM20L2 colon): > 100 µM
